Experiment [1] addresses T1, α7-type neuronal nicotinic acetylcholine receptors (Rattus norvegicus, UniProt Q05941).
T1 construct: from tissue; host or cells: rat brain membranes (whole brain without cortex, striatum and cerebellum)
As to the kind of experiment: Inhibition of [3H]Methyllycaconitine (MLA) binding assay, rat brain membranes. The following applies: % inhibition at 100 nM concentration of analog; rat brain membranes; 2.5 nM [3H]MLA; read-out: Inhibition of [3H]MLA binding.

Experiment [2] relates to NIC-evoked [3H]DA release from rat striatal slices. As to the kind of experiment: Nicotine-evoked [3H]dopamine release assay, superfused rat striatal slices. It is filed as cell-based. The following applies: 100 nM analog superfused 60 minutes prior to NIC (10 μM), percent of that in the absence of analog. As to the method: Rat striatal slices (500 μm thickness, 6-8 mg wet weight) were incubated for 30 minutes in Krebs buffer (118 mM NaCl, 4.7 mM KCl, 1.2 mM MgCl2, 1.0 mM NaH2PO4, 1.3 mM CaCl2, 11.1 mM glucose, 25 mM NaHCO3, 0.11 mM L-ascorbic acid and 0.004 mM disodium EDTA; pH 7.4, and saturated with 95% O2/5% CO2) in a metabolic shaker at 34° C. Slices were rinsed with 15 mL of fresh buffer and incubated for an additional 30 minutes in fresh buffer containing 0.1 μM [^3H]dopamine (DA; 6 slices/3 mL). Subsequently, slices were rinsed with 15 mL of fresh buffer and transferred to a glass superfusion chamber. Slices were superfused (1.0 mL/min) for 60 minutes with Krebs buffer containing nomifensine (10 μM) and pargyline (10 μM) and maintained at 34° C., pH 7.4 with continual aeration (95% O2/5% CO2). Two five minute samples (5 mL each) were collected to determine basal outflow of [^3H]DA. Analogs were added to the superfusion buffer after the collection of the second sample and remained in the buffer until 12 consecutive five minute samples were collected. Subsequently, S-(−)-nicotine (10 μM) was added to the buffer and an additional 12 consecutive five minute samples were collected. At the end of the experiment, each slice was solubilized and the [^3H] content of the tissue determined.
Radioactivity in the superfusate and tissue samples were determined by liquid scintillation spectroscopy. Fractional release for tritium collected in each sample was divided by the total tritium present at the time of sample collection and was expressed as a percentage of total tritium. Basal [^3H] outflow was calculated from the average of the tritium collected in the two five-minute samples just before addition of the analog. The sum of the increase in collected tritium resulting from either exposure to the test compound or exposure to S-(−)-nicotine in the absence cod presence of the test compound equaled total [^3H] overflow. [^3H] Overflow was calculated by subtracting the [^3H] outflow during an equivalent period of prestimulation from the values in samples collected during and after drug exposure. Inasmuch as the radiolabelled compounds were not separated and identified, the tritium in the superfusate is referred to as either [^3H] outflow or [^3H] overflow, rather than [^3H]DA. [^3H] Overflow primarily represents [^3H]DA in the presence of nomifesine and pargyline in the superfusion buffer. […]
Analogs were also evaluated for their ability to inhibit NIC evoked [^3H]DA release. In these experiments, the striatal slices were superfused for 60 minutes with 100 nM concentration of the analogs prior to NIC (10 μM) exposure. Antagonist activity was evaluated by comparing the NIC-evoked [^3H] overflow in the absence and presence of the analogs. The relative order of potency of the analogs for inhibition of NIC-evoked [^3H]DA release from rat striatal slices is illustrated in Table 1.
Data are % inhibition at 100 nM concentration of analog for at least 1-3 independent experiments. Specific binding in the [^3H]NIC binding assay is calculated at the difference between the total binding of [^3H]NIC and nonspecific binding in the presence of 10 μM cold nicotine. Specific binding for the [^3H]MLA binding assay is calculated as the difference between the total binding of 2.5 nM [^3H]MLA to the receptors alone and its nonspecific binding in the presence of 1 μM cold MLA. Analog-induced inhibition of nicotine-evoked [^3H]DA release is calculated as a percent of that in the absence of analog.

Molecules are shown by their SMILES.

T1 sequence (Q05941 23-502): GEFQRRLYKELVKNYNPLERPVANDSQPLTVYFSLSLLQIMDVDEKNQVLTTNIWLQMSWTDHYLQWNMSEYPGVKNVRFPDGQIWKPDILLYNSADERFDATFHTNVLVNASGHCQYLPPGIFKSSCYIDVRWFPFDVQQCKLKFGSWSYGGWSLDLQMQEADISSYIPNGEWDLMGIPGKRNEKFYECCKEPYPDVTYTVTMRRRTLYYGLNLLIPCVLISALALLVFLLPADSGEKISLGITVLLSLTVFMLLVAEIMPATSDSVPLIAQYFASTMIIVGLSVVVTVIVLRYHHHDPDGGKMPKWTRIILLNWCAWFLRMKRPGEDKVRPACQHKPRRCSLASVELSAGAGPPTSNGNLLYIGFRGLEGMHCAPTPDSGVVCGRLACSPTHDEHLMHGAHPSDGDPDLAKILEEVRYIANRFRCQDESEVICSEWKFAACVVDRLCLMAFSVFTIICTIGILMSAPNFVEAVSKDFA

For orientation: inhibition means the change of the read-out against control, counted positive when it falls. `CCCCc1ccc[n+](CCCC#Cc2cc(C#CCCC[n+]3cccc(CCCC)c3)cc(C#CCCC[n+]3cccc(CCCC)c3)c2)c1` [GZ551A, 1,3,5-tris-[5-(3-butyl-pyridinium)-pent-1-ynyl]-benzene tribromide]: the inhibition at 0.1 µM in experiment [1] was found to be 30 ± 2%; in experiment [2], 52%.
The corresponding values for `CN1CCC[C@H]1c1ccc[n+](CCCCCc2cc(CCCCC[n+]3cccc([C@@H]4CCCN4C)c3)cc(CCCCC[n+]3cccc([C@@H]4CCCN4C)c3)c2)c1` [GZ558C, 1,3,5-tris-{5-[3-(1-methyl-2-S-pyrrolidinyl)pyridinium]-pentyl}-benzene tribromide] are 7.9 ± 7.1% and 35%.
Consider `CN1CCC[C@H]1c1ccc[n+](CCCC#Cc2cc(C#CCCC[n+]3cccc([C@@H]4CCCN4C)c3)cc(C#CCCC[n+]3cccc([C@@H]4CCCN4C)c3)c2)c1` [GZ551B, 1,3,5-tris-{5-[3-(1-methyl-2-S-pyrrolidinyl)pyridinium]-pent-1-ynyl}-benzene tribromide], for which the inhibition at 0.1 µM came to 4.2 ± 2.2% in experiment [1] and 63% in experiment [2].

Source of the values: US8940774B2, “Tris-Quaternary Ammonium Salts and Methods for Modulating Neuronal Nicotinic Acetylcholine Receptors” (University of Kentucky Research Foundation, priority 2005, dated 2015).
